Experimental data reported in US11090308B2, “Methods of treating liver disorders or lipid disorders with a THR-beta agonist” (Madrigal Pharmaceuticals, Inc., priority 2016, dated 2021).

Tests used:
Assay type in all cases: in vitro ADME
[1] = system: sandwich-cultured dog hepatocytes (SCDH); test: Hepatobiliary disposition in sandwich-cultured dog hepatocytes (SCDH)
From the text: (§1) The following studies have been conducted: (a) in vitro drug protein binding, transporter (organic anion transporting polypeptide [OATP], P-glycoprotein [P-gp], breast cancer-related protein [BCRP], and multiple drug resistance protein 1 [MDR1]), and cytochrome P-450 enzyme assays to investigate absorption, distribution, and excretion; (b) in vivo MGL-3196 rat and dog oral PK and bioavailability studies; (c) in vivo ^14C-MGL-3196 rat and dog oral pharmacokinetics, absorption, excretion, and tissue distribution by quantitative whole-body autoradiography (QWBA) studies; and (d) liver disposition of MGL-3196 using an in vitro sandwiched hepatocyte model system (B-CLEAR® technology) in dog (SCDH) and human (SCHH) hepatocytes.
(§2) Parameters determined: • Bile Accumulation=Total Accumulationplus(+)Buffer−Cellular AccumulationMinus(−)Buffer
(§3) [formula] • AUC=(Incubation Time)*(Analyte ConcentrationMedia) • In vitro biliary clearance:
(§4) [formula] • (Kp ratio reflects the extent of MGL-3196 accumulation in hepatocyte to the total MGL-3196 concentration in the buffer, outside of the hepatocyte).
(§5) MGL-3196 and its metabolite, MGL-3196-M1 (M1), were evaluated in sandwich-cultured human hepatocytes (SCHH) to evaluate the effects of temperature and concentration on total accumulation. Incubations were performed in presence of 4% bovine serum albumin (BSA) for 20 minutes at 37° C. and 4° C. across multiple concentrations (3, 10, 30, and 100 μM). Following the hepatic accumulation study, a species comparison of the hepatobiliary disposition of MGL-3196 (30 μM) and its metabolite, M1, was evaluated in SCHH and sandwich-cultured dog hepatocytes (SCDH) in the presence of 4% BSA.

[2] = system: sandwich-cultured human hepatocytes (SCHH); test: Hepatobiliary disposition in sandwich-cultured human hepatocytes (SCHH)
Description: Qualyst Transporter Solutions evaluated the hepatic uptake of MGL-3196 in sandwich cultured human hypetocytes (SCHH). MGL-3196 was evaluated at 30 μM after a 20-minute incubation (based on a pilot uptake study) in the presence of a physiologic concentration of bovine serum albumin (BSA, ˜4%). The experiment was performed in a 24-well format using 1 lot of Transporter Certified™ human hepatocytes (N=1). Each test condition was performed in 3 wells to provide triplicate data. Sample preparation and LC/MS/MS analysis of cell lysate to determine concentrations of MGL-3196 was performed at QTS according to analytical assay methodology and analytical standards supplied by Madrigal Pharmaceuticals. The following parameter for test article were determined: (a) total accumulation (hepatic uptake), (b) cellular accumulation (intracellular concentration), (c) biliary excretion index (hepatic efflux), (d) Kp value (hepatic accumulation), (e) in vitro biliary clearance (predictive of in vivo biliary clearance), and (f) media accumulation (post incubation supernatant).
as §2, §3, §4, §5

[3] = system: sandwich-cultured human hepatocytes (SCHH); test: Effects of temperature and concentration on total accumulation in SCHH
Description: as §5

OATP1B3 = biological target: T1, OATP1B3 (Homo sapiens, UniProt Q9NPD5); test: In vitro drug transporter assay, OATP1B3
T1 sequence (Q9NPD5 1-702): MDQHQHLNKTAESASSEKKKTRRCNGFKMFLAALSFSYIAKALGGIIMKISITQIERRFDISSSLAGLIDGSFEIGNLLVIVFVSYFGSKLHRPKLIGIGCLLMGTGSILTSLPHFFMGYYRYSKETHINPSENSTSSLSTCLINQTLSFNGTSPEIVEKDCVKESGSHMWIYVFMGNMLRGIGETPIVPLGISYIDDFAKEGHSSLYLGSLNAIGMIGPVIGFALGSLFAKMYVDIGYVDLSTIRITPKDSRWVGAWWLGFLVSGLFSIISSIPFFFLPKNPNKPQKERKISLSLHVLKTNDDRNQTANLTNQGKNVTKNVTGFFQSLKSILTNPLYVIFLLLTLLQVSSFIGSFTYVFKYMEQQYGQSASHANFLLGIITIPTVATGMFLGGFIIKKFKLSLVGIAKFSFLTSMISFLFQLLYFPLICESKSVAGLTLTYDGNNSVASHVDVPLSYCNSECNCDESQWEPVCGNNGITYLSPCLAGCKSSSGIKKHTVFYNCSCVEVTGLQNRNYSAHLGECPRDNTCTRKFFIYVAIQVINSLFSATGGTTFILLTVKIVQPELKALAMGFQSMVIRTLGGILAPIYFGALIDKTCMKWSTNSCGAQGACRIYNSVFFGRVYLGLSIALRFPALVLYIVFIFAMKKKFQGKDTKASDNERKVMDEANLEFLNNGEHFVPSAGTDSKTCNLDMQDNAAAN
From the text: as §1

CYP2C19 = CYP2C19 (Homo sapiens, UniProt P33261); test: In vitro Cytochrome P-450 enzyme assay, CYP2C19
Chain of CYP2C19 (P33261 whole entry): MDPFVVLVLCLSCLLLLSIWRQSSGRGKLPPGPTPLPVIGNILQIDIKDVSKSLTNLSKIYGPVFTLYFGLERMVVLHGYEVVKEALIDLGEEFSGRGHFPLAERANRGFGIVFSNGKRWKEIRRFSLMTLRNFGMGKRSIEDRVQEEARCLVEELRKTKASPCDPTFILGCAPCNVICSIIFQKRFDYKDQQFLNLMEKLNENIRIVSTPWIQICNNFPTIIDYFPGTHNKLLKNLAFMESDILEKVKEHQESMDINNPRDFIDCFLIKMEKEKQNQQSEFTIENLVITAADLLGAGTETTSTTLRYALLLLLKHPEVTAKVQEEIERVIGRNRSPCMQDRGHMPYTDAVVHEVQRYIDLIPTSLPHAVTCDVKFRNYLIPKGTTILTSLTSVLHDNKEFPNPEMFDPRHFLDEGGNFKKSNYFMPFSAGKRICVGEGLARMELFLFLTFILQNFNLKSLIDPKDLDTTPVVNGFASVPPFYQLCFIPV

CYP3A4/5 = test: In vitro Cytochrome P-450 enzyme assay, CYP3A4/5
CYP2C8 = biological target: T2, CYP2C8 (Homo sapiens, UniProt P10632); test: In vitro Cytochrome P-450 enzyme assay, CYP2C8; conditions: for IC50: read-out: Inhibitor of: CYP2C8, IC50
T2 sequence (P10632 1-490): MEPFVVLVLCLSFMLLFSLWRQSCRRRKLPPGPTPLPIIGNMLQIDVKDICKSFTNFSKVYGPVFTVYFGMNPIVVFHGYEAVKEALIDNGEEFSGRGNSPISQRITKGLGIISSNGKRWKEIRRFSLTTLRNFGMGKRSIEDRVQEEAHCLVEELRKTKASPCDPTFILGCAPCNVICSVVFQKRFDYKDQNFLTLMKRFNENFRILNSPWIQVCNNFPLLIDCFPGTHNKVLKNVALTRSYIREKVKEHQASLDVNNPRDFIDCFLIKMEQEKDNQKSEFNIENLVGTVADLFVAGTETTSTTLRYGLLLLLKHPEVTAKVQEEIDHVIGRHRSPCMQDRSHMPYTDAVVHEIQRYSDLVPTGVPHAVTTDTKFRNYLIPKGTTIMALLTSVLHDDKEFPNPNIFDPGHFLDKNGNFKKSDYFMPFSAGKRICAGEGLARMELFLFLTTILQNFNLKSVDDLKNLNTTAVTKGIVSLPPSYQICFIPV
From the text: as §1

[4] = SCDH, 20 min exposure to MGL-3196 30 μM, 4% BSA
[5] = 20 min exposure to MGL-3196 30 μM, 4% BSA

## CC(C)c1cc(Oc2c(Cl)cc(-n3nc(C#N)c(=O)[nH]c3=O)cc2Cl)n[nH]c1=O [MGL-3196, 2-(3,5-dichloro-4-((5-isopropyl-6-oxo-1,6-dihydropyridazin-3-yl)oxy)phenyl)-3,5-dioxo-2,3,4,5-tetrahydro-1,2,4-triazine-6-carbonitrile]
[1]; 30 μM, 20-minute exposure
  Total accumulation in SCDH lower than in SCHH: ~81%
[1]; SCDH vs SCHH
  biliary clearance estimates lower in dog than human hepatocytes: ~46%
[1]; [4]
  BEI (Biliary Excretion Index): 48.7%
  Bile Acc.: 86.2 pmol/mg
  Cellular Acc.: 80.3 pmol/mg
  ClBiliary (in vitro biliary clearance): 0.784 mL/min/kg
  ICC (intracellular concentration): 10.4 µM
  Kp: 0.348 Ratio
  Total Acc.: 167 pmol/mg
[2]; [5]
  BEI (Biliary Excretion Index): 33.7%
  Bile Acc.: 293 pmol/mg
  Cellular Acc.: 570 pmol/mg
  ClBiliary (in vitro biliary clearance): 1.45 mL/min/kg
  ICC (intracellular concentration): 74.2 µM
  Kp: 2.47 Ratio
  Total Acc.: 863 pmol/mg
[3]; 37° C. vs 4° C., 20 minutes, 4% BSA, 3, 10, 30, 100 μM
  share of total accumulation (hepatocytes+bile) mediated by an active uptake process (temperature-dependent): ≥ 72.8%
OATP1B3
  Substrate for: OATP1B3: OATP1B3;
OATP1B3; @ 10 uM Pravastatin
  Inhibitor of: OATP1B3, % inhibition: OATP1B3 (57% @ 10 uM Pravastatin)
CYP2C19
  Inhibitor of: CYP2C19: not an inhibitor
CYP3A4/5
  Inhibitor of: CYP3A4/5: not an inhibitor
CYP2C8
  Substrate for: CYP2C8: CYP2C8;
  IC50: 0.9 µM

## CC(CO)c1cc(Oc2c(Cl)cc(-n3nc(C#N)c(=O)[nH]c3=O)cc2Cl)n[nH]c1=O (stereo not shown) [MGL-3623]
[1]; [4]
  Cellular Acc.: BLQ
  PIS (post incubation supernatant, cell culture media): BLQ
  Total Acc.: BLQ
[2]; [5]
  BEI (Biliary Excretion Index): 30.4%
  Bile Acc.: 1.78 pmol/mg
  Cellular Acc.: 4.01 pmol/mg
  ICC (intracellular concentration): 0.521 µM
  PIS (post incubation supernatant, cell culture media): BLQ
  Total Acc.: 5.79 pmol/mg
[2]; MGL-3196 30 μM, 20 minutes
  accumulation as % of parent's total accumulation: 0.67%
[3]; across all MGL-3196 exposure levels examined
  reduction of accumulation in 4° C. incubations: ≥ 65%
OATP1B3
  Substrate for: OATP1B3: OATP1B3
OATP1B3; weak, read-out: Inhibitor of: OATP1B3, IC50
  IC50: 22.6 µM
CYP2C19; range given jointly for CYP2B6, CYP2C9, CYP2C19, weak, read-out: Inhibitor of: CYP2C19, IC50
  IC50: 24 to 35 µM
CYP3A4/5; human, weak, read-out: Inhibitor of: CYP3A4/5, IC50
  IC50: 35 µM
CYP2C8
  Substrate for: CYP2C8: CYP 2C8
  IC50: 6.1 µM
